Where two headings read alike, the source gives them in different places.
What was measured:
[1] = Cytotoxicity, resazurin, HepG2; format: cell-based; conditions: human
Procedure: Compounds were tested for cytotoxicity against mammalian HepG2 and HEK293 cell lines, as detailed in the supplementary information.
HEK293 and HepG2 cells were seeded as 3000 and 5000 cells per well in 384-well plates, respectively. Cells were cultured in DMEM with 1% FBS for 24 hours at 37 °C, 5% CO2. Then a dilution series of compounds was added into each well, with the highest concentration of 100 µM. […] After 24 hours incubation with the compounds, 5 µM resazurin were added into each well and incubated at 37 °C for 2 hours. As a negative control, 1% Triton X-100 was added into the culture media to lyse all the cells. The fluorescence intensity was read using Polarstar Omega with excitation/emission 560/590. The data was analysed by GraphPad Prism software. Results are presented as the average percentage of control ± SD using the following equation: Percentage of Growth = (FITEST – FINegative/FIUNTREATED –FINegative)*100.

[2] = in vivo; cited from earlier work
[3] = system: ESKAPE bacteria: S. aureus MRSA (ATCC 43300), E. coli (ATCC 25922), K. pneumoniae (ATCC 700603), A. baumannii (ATCC 19606) and P. aeruginosa (ATCC 27853); test: MIC against ESKAPE pathogens, aerobic; format: cell-based; conditions: aerobic conditions, single concentration screen, n = 3
Procedure: All compounds were tested for activity against a set of anaerobic C. difficile bacteria (630 ATCC BAA-1382, NAP1/027 M7404, NAP1/027 ATCC BAA-1803, VPI10463 ATCC 43255, CD26A54_S and CD26A54_R) and representative ESKAPE pathogens S. aureus (MRSA ATCC 43300), E. coli (ATCC 25922), K. pneumoniae (ATCC 700603), A. baumannii (ATCC 19606) and P. aeruginosa (ATCC 27853) using a standard broth microdilution assay. Selected compounds were tested for activity against H. pylori strains (26695, and clinical isolates MtzS 13/25, MtzR 98/285 and MtzR 13/61) using agar plate dilution, and for antimicrobial activity against twelve Gram-positive bacterial strains: Enterococcus faecalis (VanA clinical isolate), Enterococcus faecium (MDR VanA ATCC 51559), Streptococcus pneumoniae (MDR ATCC 700677), S. aureus (MRSA ATCC 43300, MRSA clinical isolate, MRSA/DRSA clinical isolate, GISA NARSA NRS 1, GISA NARSA NRS 17, VRSA NARSA VRS1, VRSA NARSA VRS4 and VRSA NARSA VRS10) using broth microdilution. C. difficile strains were grown at 37 °C in a COY anaerobic chamber (5% H2, 10% CO2, 85% N2). H. pylori strains were grown at 37 °C under a microaerobic atmosphere (5% O2, 10% CO2). All facultative anaerobic bacteria were grown at 37 °C with normal atmospheric oxygen levels. […] Positive growth control of bacteria and DMSO as well as a negative control of only media were included for every plate. Full assay details are provided in the supplementary information.
MICs were determined by a two-fold serial broth micro dilution according to the recommendation of CLSI standards with an inoculum of 5 × 10^5 CFU/mL^4 The compounds along with standard antibiotics were serially diluted twofold across the wells of 96-well non-binding surface plates (NBS, Corning). […] Gram-positive and Gram-negative bacteria were cultured in Mueller Hinton broth (MHB) (Bacto laboratories, Cat. no. 211443) at 37 °C overnight. A sample of each culture was then diluted 40-fold in fresh MHB broth and incubated at 37 °C for 2-3 h. The resultant mid-log phase cultures were diluted to the final concentration of 5 × 10^5 CFU/mL, then 50 μL was added to each well of the compound containing 96-well plates. All the plates were covered and incubated at 37 °C for 24 h.

[4] = system: 8 additional drug resistant S. aureus strains, vancomycin resistant E. faecalis, vancomycin resistant E. faecium and multidrug resistant S. pneumoniae; test: MIC broth microdilution, drug resistant Gram-positive panel; format: cell-based; conditions: all strains of the panel
Procedure: All compounds were tested for activity against a set of anaerobic C. difficile bacteria (630 ATCC BAA-1382, NAP1/027 M7404, NAP1/027 ATCC BAA-1803, VPI10463 ATCC 43255, CD26A54_S and CD26A54_R) and representative ESKAPE pathogens S. aureus (MRSA ATCC 43300), E. coli (ATCC 25922), K. pneumoniae (ATCC 700603), A. baumannii (ATCC 19606) and P. aeruginosa (ATCC 27853) using a standard broth microdilution assay. Selected compounds were tested for activity against H. pylori strains (26695, and clinical isolates MtzS 13/25, MtzR 98/285 and MtzR 13/61) using agar plate dilution, and for antimicrobial activity against […] Gram-positive bacterial strains: Enterococcus faecalis (VanA clinical isolate), Enterococcus faecium (MDR VanA ATCC 51559), Streptococcus pneumoniae (MDR ATCC 700677), S. aureus (MRSA ATCC 43300, MRSA clinical isolate, MRSA/DRSA clinical isolate, GISA NARSA NRS 1, GISA NARSA NRS 17, VRSA NARSA VRS1, VRSA NARSA VRS4 and VRSA NARSA VRS10) using broth microdilution. C. difficile strains were grown at 37 °C in a COY anaerobic chamber (5% H2, 10% CO2, 85% N2). H. pylori strains were grown at 37 °C under a microaerobic atmosphere (5% O2, 10% CO2). All facultative anaerobic bacteria were grown at 37 °C with normal atmospheric oxygen levels. All experiments were performed in duplicate with metronidazole, vancomycin, linezolid or colistin as positive controls for relevant strains (see Table 1). Positive growth control of bacteria and DMSO as well as a negative control of only media were included for every plate. Full assay details are provided in the supplementary information.
MICs were determined by a two-fold serial broth micro dilution according to the recommendation of CLSI standards with an inoculum of 5 × 10^5 CFU/mL^4 The compounds along with standard antibiotics were serially diluted twofold across the wells of 96-well non-binding surface plates (NBS, Corning). Standards ranged from 64 to 0.03 μg/mL, and the compounds from 128 to 0.06 μg/mL with final volumes of 50 μL per well. Gram-positive and Gram-negative bacteria were cultured in Mueller Hinton broth (MHB) (Bacto laboratories, Cat. no. 211443) at 37 °C overnight. A sample of each culture was then diluted 40-fold in fresh MHB broth and incubated at 37 °C for 2-3 h. The resultant mid-log phase cultures were diluted to the final concentration of 5 × 10^5 CFU/mL, then 50 μL was added to each well of the compound containing 96-well plates. All the plates were covered and incubated at 37 °C for 24 h.

Row | SMILES | CC50 at 24 h [1] [µM] | oral bioavailable [2] [%] | MIC ESKAPE bacteria [3] [µg/mL] | CC50 at 24 h ([1]; no cytotoxicity up to 100 μM, 24 hours incubation, read-out: CC50 HepG2) [µM] | MIC against panel of drug resistant Gram-positive strains [4] [µg/mL]
1 | Cc1ncc([N+](=O)[O-])n1CCO [Compound 1, metronidazole] | > 100 | 100 | >32 |  | 
2 | Cc1ncc([N+](=O)[O-])n1CCN=[N+]=[N-] [Compound 3, 1-(2-azidoethyl)-2-methyl-5-nitro-1H-imidazole] |  |  | >32 | > 100 | > 64

From publication PMC4550478, “Metronidazole-triazole conjugates: Activity against Clostridium difficile and parasites” (European Journal of Medicinal Chemistry, 2015)
